Reference: patent US20240376138A1, “Crystal Forms, Preparation Method And Application Of Aryl Phosphine Oxide Compound” (Chengdu Di'Ao Jiuhong Pharmaceutical Factory, priority 2021, published 2024)
Where two headings read alike, the source gives them in different places.

Experiments:
[1] = tested on: PC9 cells expressing EGFR-C797S/T790M/Del19; test: Cell anti-proliferation experiment 2, PC9 cells (SRB); assay type: cell-based; settings: Homo sapiens, PC-9, 72 h, read-out: EGFR-C797S/T790M/Del19 GI50
Experimental: (§1) • 1. […] Test information: • 2.1. Cell information: PC9 cells carried EGFR Del19 mutation, and the rest of mutant cells were constructed from PC9 cells according to the conventional stable cell strain construction method. • PC9-cell lines expressing EGFR mutation • EGFR-Del19 • EGFR-T790M/Del19 • EGFR-C797S/T790M/Del19 • 2.2. Test method:
(§2) The test compounds were diluted by 5 times each time with an appropriate concentration as an initial concentration of the test, and totally diluted into 6 concentration gradients. […] SRB (Sulforhodamine B) detection method was used, and the optical density value of each well was read by a microplate reader at 490 nm wavelength.
(§3) The optical density of the cells at the drug action of 0 was set as a Tz value representing the value of the cells at the time that the drug was added. The optical density value of the cells after the solvent control DMSO acted for 72 hours was set as a C value. The optical density of the cells on which the test compounds acted for 72 hours was set as a Ti value. The response of the cells to the drug was calculated according to a method proposed by the U.S. NIH-NCI (National Institutes of Health-National Institute of Cancer): When Ti is more than or equal to Tz, the value was [(Ti−Tz)/(C−Tz)]×100; and when Ti is less than Tz, the value was [(Ti−Tz)/Tz]×100.

[2] = tested on: PC9 cells expressing EGFR-Del19; test: as above; assay type: cell-based; settings: Homo sapiens, PC-9, 72 h, read-out: EGFR-Del 19 GI50
Experimental: as §1, §2, §3

[3] = tested on: PC9 cells expressing EGFR-T790M/Del19; test: as above; assay type: cell-based; settings: Homo sapiens, PC-9, 72 h, read-out: EGFR-T790M/Del19 GI50
Experimental: as §1, §2, §3

[4] = Comparative experiment of hygroscopicity (Chinese Pharmacopoeia 2020); assay type: physicochemical
From the text: The description of hygroscopic characteristics and the definition of hygroscopic weight gain are as follows: • Deliquescence: absorbs sufficient amount of water to form a liquid; • Very hygroscopic: the weight gain by hygroscopy is not less than 15%; • Hygroscopic: the weight gain by hygroscopy is less than 15% but not less than 2%; • Slightly hygroscopic: the weight gain by hygroscopy is less than 2% but not less than 0.2%; and
Not or almost not hygroscopic: the weight gain by hygroscopy is less than 0.2% from hygroscopicity.

[5] = target: Ba/F3 cells expressing EGFR-C797S/Del19 (Homo sapiens, UniProt P00533, C797S, cells depend on it, form not given); test: Cell anti-proliferation experiment 1, BaF3 cells expressing EGFR mutation (CellTiter-Glo); assay type: cell-based; settings: 3 days, CTG, read-out: EGFR-C797S-Del19 IC50
Sequence of Ba/F3 cells expressing EGFR-C797S/Del19 (P00533 with tags, fused parts or gaps DEL746-750/C797S, form open): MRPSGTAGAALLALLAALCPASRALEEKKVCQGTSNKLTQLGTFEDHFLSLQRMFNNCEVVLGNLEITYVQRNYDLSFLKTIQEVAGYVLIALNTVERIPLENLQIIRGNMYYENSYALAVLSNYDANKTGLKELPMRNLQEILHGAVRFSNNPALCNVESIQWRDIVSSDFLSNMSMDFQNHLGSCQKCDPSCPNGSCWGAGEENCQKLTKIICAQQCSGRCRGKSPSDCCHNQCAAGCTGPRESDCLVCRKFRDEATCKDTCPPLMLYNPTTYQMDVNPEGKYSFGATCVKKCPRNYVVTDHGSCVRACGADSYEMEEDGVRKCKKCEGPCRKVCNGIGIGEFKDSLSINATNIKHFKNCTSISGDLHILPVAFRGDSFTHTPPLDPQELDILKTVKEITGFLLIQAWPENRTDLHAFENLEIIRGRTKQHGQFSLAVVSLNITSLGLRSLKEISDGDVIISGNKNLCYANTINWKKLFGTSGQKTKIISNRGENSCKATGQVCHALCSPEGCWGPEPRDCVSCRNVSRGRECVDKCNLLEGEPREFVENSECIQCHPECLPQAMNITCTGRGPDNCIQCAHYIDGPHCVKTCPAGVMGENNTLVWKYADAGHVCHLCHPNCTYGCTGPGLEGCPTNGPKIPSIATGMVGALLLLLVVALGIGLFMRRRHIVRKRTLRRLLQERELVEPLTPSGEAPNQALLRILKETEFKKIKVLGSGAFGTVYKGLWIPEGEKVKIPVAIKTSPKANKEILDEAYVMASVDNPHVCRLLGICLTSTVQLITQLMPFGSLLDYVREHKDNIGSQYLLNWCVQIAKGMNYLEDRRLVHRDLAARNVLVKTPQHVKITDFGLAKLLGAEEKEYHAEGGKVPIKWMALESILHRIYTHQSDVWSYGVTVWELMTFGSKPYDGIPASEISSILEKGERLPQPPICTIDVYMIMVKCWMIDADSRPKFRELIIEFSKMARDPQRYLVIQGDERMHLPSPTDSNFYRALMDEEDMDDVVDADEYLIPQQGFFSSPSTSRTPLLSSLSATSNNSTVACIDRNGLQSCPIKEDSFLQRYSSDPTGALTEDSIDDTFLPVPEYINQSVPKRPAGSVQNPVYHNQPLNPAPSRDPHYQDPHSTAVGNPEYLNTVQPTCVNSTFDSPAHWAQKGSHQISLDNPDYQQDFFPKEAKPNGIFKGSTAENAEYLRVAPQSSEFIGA

[6] = target: Ba/F3 cells expressing EGFR-T790M/Del19 (Homo sapiens, UniProt P00533, T790M, cells depend on it, form not given); test: as above; assay type: cell-based; settings: 3 days, CTG, read-out: EGFR-T790M/Del19 IC50
Solubility test = assay type: physicochemical; settings: Solution with pH = 6.8, 25° C.±2° C.
[7] = target: Ba/F3 cells expressing EGFR-C797S/T790M/L858R (Homo sapiens, UniProt P00533, T790M/C797S/L858R, cells depend on it); test: Cell anti-proliferation experiment 1, BaF3 cells expressing EGFR mutation (CellTiter-Glo); assay type: cell-based; settings: read-out: EGFR-C797S/T790M/L858R IC50
Experimental: (§6) Test purpose: to detect the effect of the test compounds on the proliferation of cell lines containing EGFR mutations in BaF3 cells • 2. […] Cell information: Cell lines containing EGFR mutations in BaF3 were from WuXiAppTec: • BaF3-cell lines expressing EGFR mutation • EGFR-T790M/Del19 • EGFR-C797S/Del19 • EGFR-T790M/L858R • EGFR-C797S/L858R • EGFR-C797S/T790M/L858R • EGFR-C797S/T790M/Del19 • EGFR-WT wild-type cell lines • 2.2. Test method • Day 0: Cells were seeded in a plate. • a. An ultraviolet lamp of a biological safety cabinet was turned on and countdown was started for 30 minutes. • b. A medium was preheated in a 37° C. water bath. • c. After the ultraviolet irradiation was finished, the biological safety cabinet was opened. The pre-heated medium, PBS, and the like, were wiped with alcohol and placed in the biological safety cabinet. • d. The cells were removed from an incubator, blown to a uniform cell suspension in the biological safety cabinet and counted. • e. Based on the cell counting results, the cell suspension was adjusted to a density of 3,000 cells per well and 50 microliters per well, and seeded in 384-well plates. • f. The cells after seeding were incubated in a 5% CO2 incubator at 37° C. for 3 hours. • g. Compounds were added to the cell plates using Tecan (liquid workstation). • Day 3: the cell plate added with the compounds and CTG (CellTiter-Glo chemiluminescence cell activity assay reagent) were equilibrated at room temperature, 25 μl of CTG was added to each well, centrifuged at 1,000 rpm for 1 minute, and shaken for 1-2 minutes. And centrifuging for 1 minute at 1,000 rpm again, the cell plates were allowed to settle for 10 minutes to detect a signal value in Envision. The IC50 of each compound was calculated by computer fitting with XL-Fit analysis software (the IC50 of the compound on the cell activity inhibition could be obtained by reading the concentrations of the corresponding compounds at 500 inhibition rate). Inhibition rate % C (reading value of the control group without drug−reading value of the sample)/reading value of the control group without drug×100. • 3.

[8] = target: Ba/F3 cells expressing EGFR-T790M/L858R (Homo sapiens, UniProt P00533, T790M/L858R, cells depend on it); test: as above; assay type: cell-based; settings: 3 days, CTG, read-out: EGFR-T790M/L858R IC50
Sequence of Ba/F3 cells expressing EGFR-T790M/L858R (P00533 whole entry T790M/L858R): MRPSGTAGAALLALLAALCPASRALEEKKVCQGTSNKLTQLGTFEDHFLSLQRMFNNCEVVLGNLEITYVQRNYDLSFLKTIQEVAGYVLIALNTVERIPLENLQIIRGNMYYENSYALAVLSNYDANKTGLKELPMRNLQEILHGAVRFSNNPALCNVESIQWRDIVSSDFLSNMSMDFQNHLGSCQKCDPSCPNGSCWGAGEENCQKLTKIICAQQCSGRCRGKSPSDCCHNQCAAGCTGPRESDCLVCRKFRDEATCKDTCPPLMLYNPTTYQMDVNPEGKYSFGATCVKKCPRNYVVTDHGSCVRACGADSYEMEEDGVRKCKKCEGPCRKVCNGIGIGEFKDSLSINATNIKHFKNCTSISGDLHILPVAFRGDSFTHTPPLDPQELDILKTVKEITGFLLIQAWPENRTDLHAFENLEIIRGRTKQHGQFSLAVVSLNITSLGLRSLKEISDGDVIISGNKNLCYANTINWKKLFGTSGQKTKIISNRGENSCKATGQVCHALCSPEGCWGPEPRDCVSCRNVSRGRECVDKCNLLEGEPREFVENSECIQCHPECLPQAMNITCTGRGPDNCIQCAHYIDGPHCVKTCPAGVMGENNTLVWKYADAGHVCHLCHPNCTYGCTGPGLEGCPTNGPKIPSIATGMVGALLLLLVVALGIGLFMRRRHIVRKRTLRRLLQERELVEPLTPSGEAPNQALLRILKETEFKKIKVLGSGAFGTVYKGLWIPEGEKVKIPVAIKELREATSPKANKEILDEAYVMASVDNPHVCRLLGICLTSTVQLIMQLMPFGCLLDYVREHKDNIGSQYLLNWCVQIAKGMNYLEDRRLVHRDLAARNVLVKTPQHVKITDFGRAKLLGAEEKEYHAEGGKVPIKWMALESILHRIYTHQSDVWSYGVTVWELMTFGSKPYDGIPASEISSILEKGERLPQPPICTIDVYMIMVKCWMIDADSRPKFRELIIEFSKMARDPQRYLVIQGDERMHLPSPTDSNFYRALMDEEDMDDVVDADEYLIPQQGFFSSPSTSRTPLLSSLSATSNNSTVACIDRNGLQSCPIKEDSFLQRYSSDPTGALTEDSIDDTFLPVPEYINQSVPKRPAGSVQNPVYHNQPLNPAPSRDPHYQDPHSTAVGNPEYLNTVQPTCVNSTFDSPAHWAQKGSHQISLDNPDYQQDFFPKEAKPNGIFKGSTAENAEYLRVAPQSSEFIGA
Experimental: (§7) Test purpose: to detect the effect of the test compounds on the proliferation of cell lines containing EGFR mutations in BaF3 cells • 2. Test information: • 2.1. Cell information: Cell lines containing EGFR mutations in BaF3 were from WuXiAppTec: • BaF3-cell lines expressing EGFR mutation • EGFR-T790M/Del19 • EGFR-C797S/Del19 • EGFR-T790M/L858R • EGFR-C797S/L858R • EGFR-C797S/T790M/L858R • EGFR-C797S/T790M/Del19 • EGFR-WT wild-type cell lines • 2.2. Test method • Day 0: Cells were seeded in a plate. • a. An ultraviolet lamp of a biological safety cabinet was turned on and countdown was started for 30 minutes. • b. A medium was preheated in a 37° C. water bath. • c. After the ultraviolet irradiation was finished, the biological safety cabinet was opened. […] The cells were removed from an incubator, blown to a uniform cell suspension in the biological safety cabinet and counted. • e. […] The IC50 of each compound was calculated by computer fitting with XL-Fit analysis software (the IC50 of the compound on the cell activity inhibition could be obtained by reading the concentrations of the corresponding compounds at 500 inhibition rate). Inhibition rate % C (reading value of the control group without drug−reading value of the sample)/reading value of the control group without drug×100. • 3.

[9] = target: T1, BaF3 EML-4-ALK-L1196M cell line (Homo sapiens, UniProt Q9UM73, L1196M, cells depend on it); test: Cell anti-proliferation experiment 4 (CCK-8); assay type: cell-based; settings: BaF3 EML-4-ALK-L1196M cells, 72 hours
T1 construct: fused on or other part: Q9HC35 (Echinoderm microtubule-associated protein-like 4)
T1 sequence (Q9UM73 whole entry L1196M, the tested form may be a part): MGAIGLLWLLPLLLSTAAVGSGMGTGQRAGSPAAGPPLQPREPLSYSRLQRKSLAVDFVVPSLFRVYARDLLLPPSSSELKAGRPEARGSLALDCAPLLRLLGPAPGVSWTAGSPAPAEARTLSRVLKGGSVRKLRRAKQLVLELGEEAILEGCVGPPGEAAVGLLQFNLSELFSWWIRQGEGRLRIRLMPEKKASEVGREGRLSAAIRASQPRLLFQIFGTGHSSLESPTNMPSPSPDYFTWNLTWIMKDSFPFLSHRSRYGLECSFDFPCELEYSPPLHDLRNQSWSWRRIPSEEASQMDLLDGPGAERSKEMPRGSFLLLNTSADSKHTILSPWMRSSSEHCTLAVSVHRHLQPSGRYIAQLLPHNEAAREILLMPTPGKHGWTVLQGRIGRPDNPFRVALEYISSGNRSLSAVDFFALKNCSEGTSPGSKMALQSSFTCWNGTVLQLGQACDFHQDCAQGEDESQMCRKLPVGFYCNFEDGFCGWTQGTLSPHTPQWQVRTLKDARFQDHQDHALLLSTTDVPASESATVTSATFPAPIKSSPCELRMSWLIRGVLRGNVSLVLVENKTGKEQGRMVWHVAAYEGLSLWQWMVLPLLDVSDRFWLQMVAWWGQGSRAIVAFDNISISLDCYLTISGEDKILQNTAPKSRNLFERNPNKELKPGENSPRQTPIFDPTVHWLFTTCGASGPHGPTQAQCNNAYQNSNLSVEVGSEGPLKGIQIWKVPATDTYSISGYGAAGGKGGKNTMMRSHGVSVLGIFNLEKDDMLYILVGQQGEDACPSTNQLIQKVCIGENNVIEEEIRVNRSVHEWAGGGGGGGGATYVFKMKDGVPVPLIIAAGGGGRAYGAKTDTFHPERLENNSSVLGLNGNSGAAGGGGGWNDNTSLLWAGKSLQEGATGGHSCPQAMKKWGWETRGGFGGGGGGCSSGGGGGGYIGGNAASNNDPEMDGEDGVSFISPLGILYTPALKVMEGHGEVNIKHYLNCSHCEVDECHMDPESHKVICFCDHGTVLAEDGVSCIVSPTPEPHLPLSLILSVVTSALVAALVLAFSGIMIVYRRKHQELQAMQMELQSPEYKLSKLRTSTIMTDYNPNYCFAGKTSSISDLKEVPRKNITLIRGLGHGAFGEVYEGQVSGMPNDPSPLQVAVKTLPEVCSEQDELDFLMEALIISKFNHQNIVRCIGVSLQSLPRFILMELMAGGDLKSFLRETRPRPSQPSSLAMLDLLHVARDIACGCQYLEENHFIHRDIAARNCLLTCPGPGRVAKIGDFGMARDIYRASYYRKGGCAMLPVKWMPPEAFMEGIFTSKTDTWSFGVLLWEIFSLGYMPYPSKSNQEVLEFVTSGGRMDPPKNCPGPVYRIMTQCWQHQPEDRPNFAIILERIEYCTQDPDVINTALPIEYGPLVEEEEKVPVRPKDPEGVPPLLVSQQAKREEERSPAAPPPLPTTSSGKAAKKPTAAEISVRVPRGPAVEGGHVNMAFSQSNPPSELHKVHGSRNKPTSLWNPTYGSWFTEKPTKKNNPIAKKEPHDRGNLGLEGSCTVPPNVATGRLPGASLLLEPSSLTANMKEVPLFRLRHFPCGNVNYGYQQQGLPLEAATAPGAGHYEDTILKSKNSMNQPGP
Experimental: • 1. […] Test materials • BaF3 EML-4-ALK-L1196M cell line, brand: KYinno, article number: KC-0102 • Cell Counting Kit-8 (CCK-8), brand: Targetmol, article number: C0005 • Multifunctional microplate reader, POLARstar Omega, brand: BMG LABTECH • 3. […] 10 μL of the compound diluted in gradient was added to the cell plate to give final concentrations of the compounds as 500, 166.67, 55.56, 18.52, 6.17, 2.06, 0.69, 0.23 and 0.08 nM. • d. […] Test results: The IC50 values of compound DA and compound 1 in the patent application WO2021073498A1 against BaF3 cells expressing EML-4-ALK-L1196M are shown in Table 23.

[10] = target: T2, BaF3 cells expressing EML-4-ALK-WT (Homo sapiens, UniProt Q9UM73); test: Cell anti-proliferation experiment 3, BaF3 cells with ALK fusion (CellTiter-Glo); assay type: cell-based; settings: 3 days, CTG, read-out: EML-4-ALK-WT IC50
T2 construct: fused on or other part: Q9HC35 (Echinoderm microtubule-associated protein-like 4)
T2 sequence (Q9UM73 whole entry, change not shown, the tested form may be a part): as the sequence (Q9UM73 whole entry L1196M, the tested form may be a part) above, with M1196L counted along it
From the text: (§4) • 1. […] Test information: • 2.1. Cell information: Cell lines containing ALK mutations in BaF3 were from WuXiAppTec: • Ba/F3-cell lines expressing ALK gene fusion and mutation • Ba/F3-EML-4-ALK-WT • Ba/F3-EML-4-ALK-L 1196M • 2.2.
(§5) Test results: The IC50 values of the compound DA and the control compound against BaF3 cells expressing EML-4-ALK-WT and EML-4-ALK-L1196M are shown in Table 22. • 4.

[11] = target: T3, BaF3 cells expressing EML-4-ALK-L1196M (Homo sapiens, UniProt Q9UM73, L1196M, cells depend on it); test: Cell anti-proliferation experiment 3, BaF3 cells with ALK fusion and mutation (CellTiter-Glo); assay type: cell-based; settings: 3 days, CTG, read-out: EML-4-ALK-L1196M IC50
T3 construct: fused on or other part: Q9HC35 (Echinoderm microtubule-associated protein-like 4)
T3 sequence (Q9UM73 whole entry L1196M, the tested form may be a part): as the sequence (Q9UM73 whole entry L1196M, the tested form may be a part) above
From the text: as §4, §5

[12] = target: Ba/F3 cells expressing EGFR-WT (Homo sapiens, UniProt P00533); test: Cell anti-proliferation experiment 1, BaF3 EGFR-WT wild-type cell line (CellTiter-Glo); assay type: cell-based; settings: read-out: EGFR-WT IC50
Experimental: as §6

[13] = target: Ba/F3 cells expressing EGFR-C797S/T790M/Del19 (Homo sapiens, UniProt P00533, T790M/C797S, cells depend on it, form not given); test: Cell anti-proliferation experiment 1, BaF3 cells expressing EGFR mutation (CellTiter-Glo); assay type: cell-based; settings: read-out: EGFR-C797S/T790M/Del19 IC50
[14] = target: Ba/F3 cells expressing EGFR-C797S/L858R (Homo sapiens, UniProt P00533, C797S/L858R, cells depend on it); test: as above; assay type: cell-based; settings: 3 days, CTG, read-out: EGFR-C797S/L858R IC50
Experimental: as §7

Question: With `COc1cc(N2CCC(N3CCN(C)CC3)CC2)c(C)cc1Nc1ncc(Br)c(Nc2ccc(C)cc2P(C)(C)=O)n1` [Compound DA, (2-((5-Bromo-2-((2-methoxy-5-methyl-4-(4-(4-methylpiperazin-1-yl)piperidin-1-yl)phenyl)amino)pyrimidin-4-yl)amino)-5-methylphenyl)dimethylphosphorus oxide] as the compound, how does the GI50 [1] read?
Answer: 15.6 nM

Question: What about the GI50 [2] of the same compound?
Answer: 48.4 nM

Question: What about the GI50 [3] of the same compound?
Answer: 12.8 nM

Question: What about the Hygroscopicity ([4]; class by weight gain after 24 h) of the same compound?
Answer: Hygroscopic (the weight gain by hygroscopy is less than 15% but not less than 2%)

Question: And the “Weight gain % after 24 h” value ([4]; hygroscopicity test, 24 h)?
Answer: 3.78%

Question: What about the GI50 [5] of the same compound?
Answer: 48.1 nM

Question: What about the GI50 [6] of the same compound?
Answer: 6.5 nM

Question: What about the “Solubility for 24 h” value (Solubility test) of the same compound?
Answer: 2110 µg/mL

Question: What about the GI50 [7] of the same compound?
Answer: 64.1 nM

Question: What about the GI50 [8] of the same compound?
Answer: 22.5 nM

Question: And the GI50 ([9]; CCK-8, first test, read-out: IC50 in the first test)?
Answer: 15.1 nM

Question: And the GI50 ([9]; CCK-8, second test, read-out: IC50 in the second test)?
Answer: 10.4 nM

Question: What about the GI50 [10] of the same compound?
Answer: 8 nM

Question: And the GI50 [11]?
Answer: 13.1 nM

Question: What about the GI50 [12] of the same compound?
Answer: 1260 nM

Question: What about the GI50 [13] of the same compound?
Answer: 16.5 nM

Question: And the GI50 [14]?
Answer: 32.6 nM
